Data taken from patent US8088806B2 (Achillion Pharmaceuticals, Inc., priority 2005, dated 2012).

These molecules were tested on HCV replicon (assay: Replicon based assay of HCV replication inhibition (NPT ELISA)). Conditions: Hepatitis C virus, replicon based assay of HCV replication inhibition; Table IV; read-out: Activity.
Assay type: cell-based, Hepatitis C virus
Procedure, shortened: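 Huh-7 cells carrying a bicistronic HCV replicon (neo, EMCV-IRES-driven NS3–NS5B) treated overnight after seeding with usually 6 concentrations, 10 to 0.03 micromolar, for three days at 37° C without G418. Replication read as NPT level by captured ELISA; matched-DMSO wells and interferon alpha as controls.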

`Cc1ccc(CCCCOc2ccc(Nc3nc(-c4ccc(CC(=O)O)s4)cs3)cc2C(F)(F)F)cc1` [compound 851, 2-(5-(2-(4-(4-p-tolylbutoxy)-3-(trifluoromethyl)phenylamino)thiazol-4-yl)thiophen-2-yl)acetic acid] and `FC(F)(F)c1cc(Nc2nc(-c3cccnc3)cs2)ccc1OCCCc1ccco1` [compound 860, N-(4-(3-(furan-2-yl)propoxy)-3-(trifluoromethyl)phenyl)-4-(pyridin-3-yl)thiazol-2-amine] cannot be ordered by EC50: < 1000 nM for the first, < 1000 nM for the second.

First: Fc1cc(Nc2nc(-c3cccnc3)cs2)ccc1OCCCCc1cccs1 [compound 852, N-(4-(4-(thiophen-2-yl)butoxy)-3-fluorophenyl)-4-(pyridin-3-yl)thiazol-2-amine]
Second: Cc1sc(Nc2ccc(OCCCCc3cccs3)c(F)c2)nc1-c1cccnc1 [compound 854, N-(4-(4-(thiophen-2-yl)butoxy)-3-fluorophenyl)-5-methyl-4-(pyridin-3-yl)thiazol-2-amine]
The EC50 of the first is lower: < 1000 nM for the first, 1000 to 10000 nM for the second.

Compared with `Fc1cc(Nc2nc(-c3cccnc3)cs2)ccc1OCCCc1ccccc1` [compound 853, N-(4-(3-phenylpropoxy)-3-fluorophenyl)-4-(pyridin-3-yl)thiazol-2-amine], `Cc1sc(Nc2ccc(OCCCc3ccccc3)c(F)c2)nc1-c1cccnc1` [compound 855, N-(4-(3-phenylpropoxy)-3-fluorophenyl)-5-methyl-4-(pyridin-3-yl)thiazol-2-amine] is higher in EC50: < 1000 nM for the first, > 10000 nM for the second.

`Cc1sc(Nc2ccc(OCC3CCCCC3)c(C(F)(F)F)c2)nc1-c1cccnc1` [compound 856, N-(4-(cyclohexylmethoxy)-3-(trifluoromethyl)phenyl)-5-methyl-4-(pyridin-3-yl)thiazol-2-amine] and `CCCCCCCCN(C)c1ccc(Nc2nc(-c3cccnc3)c(C)s2)cc1C(F)(F)F` [compound 862, 2-(trifluoromethyl)-N^1-methyl-N^4-(5-methyl-4-(pyridin-3-yl)thiazol-2-yl)-N^1-octylbenzene-1,4-diamine] cannot be ordered by EC50: < 1000 nM for the first, < 1000 nM for the second.

`CCCCCCCCOc1ccc(Nc2nc(-c3ccc(F)cc3)c(N)s2)cc1C(F)(F)F` [compound 857, N^2-(3-(trifluoromethyl)-4-(octyloxy)phenyl)-4-(4-fluorophenyl)thiazole-2,5-diamine] and `CCCCCCCCOc1ccc(Nc2nc(C#N)c(N)s2)cc1C(F)(F)F` [compound 859, 2-(3-(trifluoromethyl)-4-(octyloxy)phenylamino)-5-aminothiazole-4-carbonitrile] cannot be ordered by EC50: < 1000 nM for the first, < 1000 nM for the second.

First: Nc1sc(Nc2ccc(OCc3ccccc3)cc2)nc1-c1ccc(F)cc1 [compound 858, N^2-(4-(benzyloxy)phenyl)-4-(4-fluorophenyl)thiazole-2,5-diamine]
Second: Fc1ccc(Cn2ccc3ccc(Nc4nc(-c5ccc(F)cc5)cs4)cc32)cc1 [compound 868, 1-(4-fluorobenzyl)-N-(4-(4-fluorophenyl)thiazol-2-yl)-1H-indol-6-amine]
The EC50 of the first is higher: 1000 to 10000 nM for the first, < 1000 nM for the second. The second is the more potent here.

`Fc1cc(Nc2nc(-c3cccnc3)cs2)ccc1OCCCc1ccco1` [compound 861, N-(4-(3-(furan-2-yl)propoxy)-3-fluorophenyl)-4-(pyridin-3-yl)thiazol-2-amine] and `FC(F)(F)c1cc(Nc2nc(-c3cccnc3)cs2)ccc1OCCSc1ccccc1` [compound 864, N-(4-(2-(phenylthio)ethoxy)-3-(trifluoromethyl)phenyl)-4-(pyridin-3-yl)thiazol-2-amine] cannot be ordered by EC50: < 1000 nM for the first, < 1000 nM for the second.

First: CCCCCCCN(C)Cc1ccc(Nc2nc(-c3cccnc3)c(C)s2)cc1C(F)(F)F [compound 863]
Second: Cc1ccc(Nc2nc(-c3cccnc3)cs2)cc1C(F)(F)F [compound 879, N-(3-(trifluoromethyl)-4-methylphenyl)-4-(pyridin-3-yl)thiazol-2-amine]
The EC50 of the first is higher: 1000 to 10000 nM for the first, < 1000 nM for the second. The second is the more potent here.

`CCCCCCCCOc1ccc(Nc2nc(-c3cnc(NC(C)=O)[nH]3)cs2)cc1C(F)(F)F` [compound 865, N-(5-(2-(3-(trifluoromethyl)-4-(octyloxy)phenylamino)thiazol-4-yl)-1H-imidazol-2-yl)acetamide] and `CCCCCCCCNc1ccc(-c2nc(-c3csc(Nc4cccnc4)n3)cs2)cc1C(F)(F)F` [compound 869, N-(4-(2-(3-(trifluoromethyl)-4-(octylamino)phenyl)thiazol-4-yl)thiazol-2-yl)pyridin-3-amine] cannot be ordered by EC50: < 1000 nM for the first, < 1000 nM for the second.

`COc1ncc(-c2csc(Nc3ccc4ccn(Cc5ccc(F)cc5)c4c3)n2)cn1` [compound 866, 1-(4-fluorobenzyl)-N-(4-(2-methoxypyrimidin-5-yl)thiazol-2-yl)-1H-indol-6-amine] and `Fc1ccc(Cn2ccc3ccc(Nc4nc(-c5cccnc5)cs4)cc32)cc1` [compound 867, 1-(4-fluorobenzyl)-N-(4-(pyridin-3-yl)thiazol-2-yl)-1H-indol-6-amine] cannot be ordered by EC50: < 1000 nM for the first, < 1000 nM for the second.

Compared with `Fc1ccc(Cn2ccc3cc(Nc4nc(-c5cccnc5)cs4)ccc32)cc1` [compound 870], `Fc1ccc(Cn2ccc3cc(Nc4nc(-c5ccc(F)cc5)cs4)ccc32)cc1` [compound 871, 1-(4-fluorobenzyl)-N-(4-(4-fluorophenyl)thiazol-2-yl)-1H-indol-5-amine] is higher in EC50: < 1000 nM for the first, > 10000 nM for the second. The first is the more potent here.

`CCC(C)c1ccc(Nc2nc(-c3cccnc3)cs2)cc1` (centres unmarked) [compound 872, N-(4-sec-butylphenyl)-4-(pyridin-3-yl)thiazol-2-amine] and `CC(C)c1ccc(Nc2nc(-c3cccnc3)cs2)cc1` [compound 887, N-(4-isopropylphenyl)-4-(pyridin-3-yl)thiazol-2-amine] fall in the same range of EC50: 1000 to 10000 nM for the first, 1000 to 10000 nM for the second.

`NC(=O)c1ccc(Nc2nc(-c3cccnc3)cs2)cc1` [compound 873, 4-(4-(pyridin-3-yl)thiazol-2-ylamino)benzamide] and `NC(=O)c1cccc(Nc2nc(-c3cccnc3)cs2)c1` [compound 876, 3-(4-(pyridin-3-yl)thiazol-2-ylamino)benzamide] cannot be ordered by EC50: > 10000 nM for the first, > 10000 nM for the second.

`FC(F)(F)c1cc(Nc2nc(-c3cccnc3)cs2)cc(C(F)(F)F)c1` [compound 874, N-(3,5-bis(trifluoromethyl)phenyl)-4-(pyridin-3-yl)thiazol-2-amine] and `Fc1ccc(Nc2nc(-c3cccnc3)cs2)cc1C(F)(F)F` [compound 875, N-(4-fluoro-3-(trifluoromethyl)phenyl)-4-(pyridin-3-yl)thiazol-2-amine] fall in the same range of EC50: 1000 to 10000 nM for the first, 1000 to 10000 nM for the second.

Compared with `Cc1cc(OC(F)(F)F)ccc1Nc1nc(-c2cccnc2)cs1` [compound 877, N-(2-methyl-4-(trifluoromethoxy)phenyl)-4-(pyridin-3-yl)thiazol-2-amine], `FC(F)(F)Oc1ccc(Nc2nc(-c3cccnc3)cs2)cc1` [compound 885, 4-(pyridin-3-yl)-N-(4-(trifluoromethoxy)phenyl)thiazol-2-amine] is lower in EC50: > 10000 nM for the first, 1000 to 10000 nM for the second.

`CC(=O)Nc1ccc(Nc2nc(-c3cccnc3)cs2)cc1` [compound 878, N-(4-(4-(pyridin-3-yl)thiazol-2-ylamino)phenyl)acetamide] and `CC(C)(C)OC(=O)Nc1ccc(Nc2nc(-c3cccnc3)cs2)cc1` [compound 895, tert-butyl 4-(4-(pyridin-3-yl)thiazol-2-ylamino)phenylcarbamate] cannot be ordered by EC50: > 10000 nM for the first, > 10000 nM for the second.

Compared with `N#Cc1ccc(Nc2nc(-c3cccnc3)cs2)cc1` [compound 880, 4-(4-(pyridin-3-yl)thiazol-2-ylamino)benzonitrile], `Cc1ccc(Nc2nc(-c3cccnc3)cs2)cc1` [compound 884, 4-(pyridin-3-yl)-N-p-tolylthiazol-2-amine] is higher in EC50: 1000 to 10000 nM for the first, > 10000 nM for the second. The first is the more potent here.

Going from `FC(F)(F)c1cc(Nc2nc(-c3cccnc3)cs2)ccc1Cl` [compound 881, N-(4-chloro-3-(trifluoromethyl)phenyl)-4-(pyridin-3-yl)thiazol-2-amine] to `N#Cc1ccc(Nc2nc(-c3cccnc3)cs2)cc1C(F)(F)F` [compound 882, 4-(4-(pyridin-3-yl)thiazol-2-ylamino)-2-(trifluoromethyl)benzonitrile], the EC50 rises from < 1000 nM to > 10000 nM. The first is the more potent here.

`Cc1cc(C)c(Nc2nc(-c3cccnc3)cs2)c(C)c1` [compound 883, N-mesityl-4-(pyridin-3-yl)thiazol-2-amine] and `CC(C)(C)c1cccc(Nc2nc(-c3cccnc3)cs2)c1` [compound 893, N-(3-tert-butylphenyl)-4-(pyridin-3-yl)thiazol-2-amine] cannot be ordered by EC50: > 10000 nM for the first, > 10000 nM for the second.

First: COc1ccc(Nc2nc(-c3cccnc3)cs2)cc1 [compound 886, N-(4-methoxyphenyl)-4-(pyridin-3-yl)thiazol-2-amine]
Second: CC(C)(C)c1ccc(Nc2nc(-c3cccnc3)cs2)cc1 [compound 892, N-(4-tert-butylphenyl)-4-(pyridin-3-yl)thiazol-2-amine]
The EC50 of the first is higher: > 10000 nM for the first, 1000 to 10000 nM for the second.

`Fc1ccc(C(F)(F)F)cc1Nc1nc(-c2cccnc2)cs1` [compound 888, N-(2-fluoro-5-(trifluoromethyl)phenyl)-4-(pyridin-3-yl)thiazol-2-amine] and `Fc1c(Nc2nc(-c3cccnc3)cs2)cccc1C(F)(F)F` [compound 890, N-(2-fluoro-3-(trifluoromethyl)phenyl)-4-(pyridin-3-yl)thiazol-2-amine] fall in the same range of EC50: 1000 to 10000 nM for the first, 1000 to 10000 nM for the second.

First: Fc1ccc(Nc2nc(-c3cccnc3)cs2)c(F)c1F [compound 889, N-(2,3,4-trifluorophenyl)-4-(pyridin-3-yl)thiazol-2-amine]
Second: FC(F)(F)c1ccc(Nc2nc(-c3cccnc3)cs2)cc1 [compound 891, N-(4-(trifluoromethyl)phenyl)-4-(pyridin-3-yl)thiazol-2-amine]
The EC50 of the first is higher: > 10000 nM for the first, 1000 to 10000 nM for the second.

`CC(C)(C)c1cc(Nc2nc(-c3cccnc3)cs2)cc(C(C)(C)C)c1` [compound 894, N-(3,5-di-tert-butylphenyl)-4-(pyridin-3-yl)thiazol-2-amine] and `Cc1ccc(Oc2ccc(Nc3nc(-c4cccnc4)cs3)cc2)cc1` [compound 897, N-(4-(p-tolyloxy)phenyl)-4-(pyridin-3-yl)thiazol-2-amine] cannot be ordered by EC50: < 1000 nM for the first, < 1000 nM for the second.

`Clc1ccc(Oc2ccc(Nc3nc(-c4cccnc4)cs3)cc2)cc1` [compound 896, N-(4-(4-chlorophenoxy)phenyl)-4-(pyridin-3-yl)thiazol-2-amine] was tested, and the EC50 was < 1000 nM.
